Test results as given in patent publication US7750003B2, “Compounds-943” (AstraZeneca AB, priority 2006, dated 2010).

biological target: recombinant mTOR (FLAG-tagged, residues 1362-2549) (Homo sapiens, UniProt P42345); test: In vitro mTOR kinase assay (Test (a), AlphaScreen); format: biochemical; conditions: ATP 20 μM, read-out: Test (a): IC50 versus mTOR kinase
Method: (a) In Vitro mTOR Kinase Assay
Following expression in the mammalian HEK293 cell line, expressed protein was purified using the FLAG epitope tag using standard purification techniques.
Aliquots (2 μl) of each compound dilution were placed into a well of a Greiner 384-well low volume (LV) white polystyrene plate (Greiner Bio-one).
These assay solutions were incubated for 2 hours at room temperature.
The resultant signals arising from laser light excitation at 680 nm were read using a Packard Envision instrument.
The phosphorylated biotinylated peptide that is associated with AlphaScreen Streptavidin donor beads forms a complex with the p70 S6 Kinase (T389) 1A5 Monoclonal Antibody that is associated with Alphascreen Protein A acceptor beads. Upon laser light excitation at 680 nm, the donor bead: acceptor bead complex produces a signal that can be measured. Accordingly, the presence of mTOR kinase activity results in an assay signal. In the presence of an mTOR kinase inhibitor, signal strength is reduced.
mTOR enzyme inhibition for a given test compound was expressed as an IC50 value.

Sequence of recombinant mTOR (FLAG-tagged, residues 1362-2549) (P42345 1362-2549): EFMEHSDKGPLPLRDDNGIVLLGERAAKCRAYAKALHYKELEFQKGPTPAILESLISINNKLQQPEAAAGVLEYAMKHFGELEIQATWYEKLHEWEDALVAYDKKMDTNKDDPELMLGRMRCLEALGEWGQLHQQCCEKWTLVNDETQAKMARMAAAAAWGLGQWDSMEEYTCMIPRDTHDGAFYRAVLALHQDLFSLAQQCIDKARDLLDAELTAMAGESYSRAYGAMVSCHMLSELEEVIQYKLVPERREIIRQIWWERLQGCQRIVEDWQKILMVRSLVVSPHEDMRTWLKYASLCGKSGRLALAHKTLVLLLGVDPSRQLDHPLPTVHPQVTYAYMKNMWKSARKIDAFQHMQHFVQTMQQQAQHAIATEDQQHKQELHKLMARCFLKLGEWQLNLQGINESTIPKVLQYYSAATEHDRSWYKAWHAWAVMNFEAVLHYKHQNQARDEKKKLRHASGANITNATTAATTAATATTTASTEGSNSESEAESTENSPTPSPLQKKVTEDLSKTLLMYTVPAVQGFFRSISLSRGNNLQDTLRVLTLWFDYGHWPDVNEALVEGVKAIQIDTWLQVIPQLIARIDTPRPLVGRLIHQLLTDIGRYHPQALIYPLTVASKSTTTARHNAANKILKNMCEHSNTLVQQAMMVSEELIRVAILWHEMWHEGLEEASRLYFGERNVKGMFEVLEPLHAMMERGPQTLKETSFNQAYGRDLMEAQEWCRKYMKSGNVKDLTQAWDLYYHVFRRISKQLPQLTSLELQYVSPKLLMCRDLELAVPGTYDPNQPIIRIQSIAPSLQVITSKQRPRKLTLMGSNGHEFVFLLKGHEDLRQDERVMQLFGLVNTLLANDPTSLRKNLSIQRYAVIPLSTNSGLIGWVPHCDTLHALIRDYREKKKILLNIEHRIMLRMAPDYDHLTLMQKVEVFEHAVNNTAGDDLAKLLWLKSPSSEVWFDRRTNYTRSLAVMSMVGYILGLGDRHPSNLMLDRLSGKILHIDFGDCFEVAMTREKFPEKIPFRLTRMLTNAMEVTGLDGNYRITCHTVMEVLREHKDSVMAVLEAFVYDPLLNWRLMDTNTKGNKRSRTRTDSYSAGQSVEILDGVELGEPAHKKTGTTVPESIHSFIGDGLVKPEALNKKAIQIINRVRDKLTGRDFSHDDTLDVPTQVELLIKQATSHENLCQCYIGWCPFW

CCNC(=O)Nc1ccc(-c2nc(CS(C)(=O)=O)cc(N3CCOC[C@@H]3C)n2)cc1 [Example 1, 1-Ethyl-3-[4-[4-[(3S)-3-methylmorpholin-4-yl]-6-(methylsulfonylmethyl)pyrimidin-2-yl]phenyl]urea] and CNC(=O)Nc1ccc(-c2nc(CS(C)(=O)=O)cc(N3CCOC[C@@H]3C)n2)cc1 [Example 2d, 1-methyl-3-[4-[4-[(3S)-3-methylmorpholin-4-yl]-6-(methylsulfonylmethyl)pyrimidin-2-yl]phenyl]urea] are within 1.5-fold of each other in IC50: 0.0062 µM for the first, 0.0068 µM for the second.

Compared with COc1ccc(NC(=O)Nc2ccc(-c3nc(CS(C)(=O)=O)cc(N4CCOC[C@@H]4C)n3)cc2)cc1 [Example 1a, 1-(4-methoxyphenyl)-3-[4-[4-[(3S)-3-methylmorpholin-4-yl]-6-(methylsulfonylmethyl)pyrimidin-2-yl]phenyl]urea], C[C@H]1COCCN1c1cc(CS(C)(=O)=O)nc(-c2ccc(NC(=O)Nc3ccc(F)cc3)cc2)n1 [Example 1e, 3-(4-fluorophenyl)-1-[4-[4-[(3S)-3-methylmorpholin-4-yl]-6-(methylsulfonylmethyl)pyrimidin-2-yl]phenyl]urea] is 5.2-fold higher in IC50: 0.062 µM for the first, 0.32 µM for the second.

Compared with CC(C)NC(=O)Nc1ccc(-c2nc(CS(C)(=O)=O)cc(N3CCOC[C@@H]3C)n2)cc1 [Example 1c, 3-[4-[4-[(3S)-3-methylmorpholin-4-yl]-6-(methylsulfonylmethyl)pyrimidin-2-yl]phenyl]-1-propan-2-yl-urea], C[C@H]1COCCN1c1cc(CS(C)(=O)=O)nc(-c2ccc(NC(=O)N(C)C)cc2)n1 [Example 2b, 1,1-dimethyl-3-[4-[4-[(3S)-3-methylmorpholin-4-yl]-6-(methylsulfonylmethyl)pyrimidin-2-yl]phenyl]urea] is 3.7-fold higher in IC50: 0.078 µM for the first, 0.29 µM for the second. The first is the more potent here.

First: C[C@H]1COCCN1c1cc(CS(C)(=O)=O)nc(-c2ccc(NC(=O)Nc3ccc(F)cc3)c(F)c2)n1 [Example 1f, 1-[2-fluoro-4-[4-[(3S)-3-methylmorpholin-4-yl]-6-(methylsulfonylmethyl)pyrimidin-2-yl]phenyl]-3-(4-fluorophenyl)urea]
Second: COc1cc(-c2nc(CS(C)(=O)=O)cc(N3CCOC[C@@H]3C)n2)ccc1NC(=O)Nc1ccc(F)cc1 [Example 1h, 3-(4-fluorophenyl)-1-[2-methoxy-4-[4-[(3S)-3-methylmorpholin-4-yl]-6-(methylsulfonylmethyl)pyrimidin-2-yl]phenyl]urea]
The IC50 of the first is 3.3-fold lower: 0.36 µM for the first, 1.2 µM for the second. The first is the more potent here.

Compared with C[C@H]1COCCN1c1cc(CS(C)(=O)=O)nc(-c2ccc(NC(=O)Nc3ccccc3)c(F)c2)n1 [Example 1g, 1-[2-fluoro-4-[4-[(3S)-3-methylmorpholin-4-yl]-6-(methylsulfonylmethyl)pyrimidin-2-yl]phenyl]-3-phenyl-urea], Cc1cc(-c2nc(CS(C)(=O)=O)cc(N3CCOC[C@@H]3C)n2)ccc1NC(=O)Nc1ccccc1 [Example 3, 1-[2-Methyl-4-[4-[(3S)-3-methylmorpholin-4-yl]-6-(methylsulfonylmethyl)pyrimidin-2-yl]phenyl]-3-phenyl-urea] is 1.6-fold higher in IC50: 0.96 µM for the first, 1.5 µM for the second.

Compared with COc1ccc(NC(=O)Nc2ccc(-c3nc(CS(C)(=O)=O)cc(N4CCOC[C@@H]4C)n3)cc2OC)cc1 [Example 1i, 3-[2-methoxy-4-[4-[(3S)-3-methylmorpholin-4-yl]-6-(methylsulfonylmethyl)pyrimidin-2-yl]phenyl]-1-(4-methoxyphenyl)urea], CCNC(=O)Nc1ccc(-c2nc(CS(C)(=O)=O)cc(N3CCOC[C@@H]3C)n2)cc1OC [Example 3a, 1-ethyl-3-[2-methoxy-4-[4-[(3S)-3-methylmorpholin-4-yl]-6-(methylsulfonylmethyl)pyrimidin-2-yl]phenyl]urea] is 5.5-fold lower in IC50: 0.55 µM for the first, 0.1 µM for the second.

Going from C[C@H]1COCCN1c1cc(CS(C)(=O)=O)nc(-c2ccc(NC(=O)Nc3ccc(F)cc3)nc2)n1 [Example 1j, 3-(4-fluorophenyl)-1-[5-[4-[(3S)-3-methylmorpholin-4-yl]-6-(methylsulfonylmethyl)pyrimidin-2-yl]pyridin-2-yl]urea] to C[C@H]1COCCN1c1cc(CS(C)(=O)=O)nc(-c2ccc(NC(=O)Nc3ccccc3)c(Cl)c2)n1 [Example 3b, 1-[2-Chloro-4-[4-[(3S)-3-methylmorpholin-4-yl]-6-(methylsulfonylmethyl)pyrimidin-2-yl]phenyl]-3-phenyl-urea], the IC50 rises from 0.043 µM to 0.44 µM (10-fold).

Compared with C[C@H]1COCCN1c1cc(CS(C)(=O)=O)nc(-c2ccc(NC(=O)N3CCC3)cc2)n1 [Example 2, N-[4-[4-[(3S)-3-methylmorpholin-4-yl]-6-(methylsulfonylmethyl)pyrimidin-2-yl]phenyl]azetidine-1-carboxamide], C[C@H]1COCCN1c1cc(CS(C)(=O)=O)nc(-c2ccc(NC(=O)N3CCC3)c(F)c2)n1 [Example 4a, N-[2-Fluoro-4-[4-[(3S)-3-methylmorpholin-4-yl]-6-(methylsulfonylmethyl)pyrimidin-2-yl]phenyl]azetidine-1-carboxamide] is 3.2-fold higher in IC50: 0.31 µM for the first, 1 µM for the second.

Going from COCCN(C)C(=O)Nc1ccc(-c2nc(CS(C)(=O)=O)cc(N3CCOC[C@@H]3C)n2)cc1 [Example 2a, 1-(2-methoxyethyl)-1-methyl-3-[4-[4-[(3S)-3-methylmorpholin-4-yl]-6-(methylsulfonylmethyl)pyrimidin-2-yl]phenyl]urea] to COCCNC(=O)Nc1ccc(-c2nc(CS(C)(=O)=O)cc(N3CCOC[C@@H]3C)n2)cc1 [Example 4d, 1-(2-methoxyethyl)-3-[4-[4-[(3S)-3-methylmorpholin-4-yl]-6-(methylsulfonylmethyl)pyrimidin-2-yl]phenyl]urea], the IC50 falls from 2.3 µM to 0.17 µM (14-fold). The second is the more potent here.

COc1cc(-c2nc(CS(C)(=O)=O)cc(N3CCOC[C@@H]3C)n2)ccc1NC(=O)N(C)C [Example 2c, 3-[2-methoxy-4-[4-[(3S)-3-methylmorpholin-4-yl]-6-(methylsulfonylmethyl)pyrimidin-2-yl]phenyl]-1,1-dimethyl-urea] and C[C@H]1COCCN1c1cc(CS(C)(=O)=O)nc(-c2ccc(NC(=O)N(C)C)c(F)c2)n1 [Example 2f, 3-[2-fluoro-4-[4-[(3S)-3-methylmorpholin-4-yl]-6-(methylsulfonylmethyl)pyrimidin-2-yl]phenyl]-1,1-dimethyl-urea] are within 1.5-fold of each other in IC50: 1.2 µM for the first, 1.7 µM for the second.

CNC(=O)Nc1ccc(-c2nc(CS(C)(=O)=O)cc(N3CCOC[C@@H]3C)n2)cc1F [Example 2e, 3-[2-fluoro-4-[4-[(3S)-3-methylmorpholin-4-yl]-6-(methylsulfonylmethyl)pyrimidin-2-yl]phenyl]-1-methyl-urea] and CCNC(=O)Nc1ccc(-c2nc(CS(C)(=O)=O)cc(N3CCOC[C@@H]3C)n2)cc1F [Example 4, 1-Ethyl-3-[2-fluoro-4-[4-[(3S)-3-methylmorpholin-4-yl]-6-(methylsulfonylmethyl)pyrimidin-2-yl]phenyl]urea] are within 1.5-fold of each other in IC50: 0.038 µM for the first, 0.031 µM for the second.

C[C@H]1COCCN1c1cc(CS(C)(=O)=O)nc(-c2cccc(NC(=O)Nc3ccccc3)c2)n1 [Example 3c, 1-[3-[4-[(3S)-3-Methylmorpholin-4-yl]-6-(methylsulfonylmethyl)pyrimidin-2-yl]phenyl]-3-phenyl-urea] and C[C@H]1COCCN1c1cc(CS(C)(=O)=O)nc(-c2ccc(N(C)C(=O)Nc3ccccc3)cc2)n1 [Example 3d, 1-Methyl-1-[4-[4-[(3S)-3-methylmorpholin-4-yl]-6-(methylsulfonylmethyl)pyrimidin-2-yl]phenyl]-3-phenyl-urea] are within 1.5-fold of each other in IC50: 3.3 µM for the first, 2.9 µM for the second.

First: CC(C)NC(=O)Nc1ccc(-c2nc(CS(C)(=O)=O)cc(N3CCOC[C@@H]3C)n2)cc1F [Example 4b, 3-[2-fluoro-4-[4-[(3S)-3-methylmorpholin-4-yl]-6-(methylsulfonylmethyl)pyrimidin-2-yl]phenyl]-1-propan-2-yl-urea]
Second: COCCNC(=O)Nc1ccc(-c2nc(CS(C)(=O)=O)cc(N3CCOC[C@@H]3C)n2)cc1F [Example 4g, 3-[2-fluoro-4-[4-[(3S)-3-methylmorpholin-4-yl]-6-(methylsulfonylmethyl)pyrimidin-2-yl]phenyl]-1-(2-methoxyethyl)urea]
The IC50 of the first is 5.9-fold lower: 0.14 µM for the first, 0.83 µM for the second. The first is the more potent here.

COCCNC(=O)Nc1ccc(-c2nc(CS(C)(=O)=O)cc(N3CCOC[C@@H]3C)n2)cc1OC [Example 4e, 1-(2-methoxyethyl)-3-[2-methoxy-4-[4-[(3S)-3-methylmorpholin-4-yl]-6-(methylsulfonylmethyl)pyrimidin-2-yl]phenyl]urea] and COCCN(C)C(=O)Nc1ccc(-c2nc(CS(C)(=O)=O)cc(N3CCOC[C@@H]3C)n2)cc1F [Example 4f, 3-[2-Fluoro-4-[4-[(3S)-3-methylmorpholin-4-yl]-6-(methylsulfonylmethyl)pyrimidin-2-yl]phenyl]-1-(2-methoxyethyl)-1-methyl-urea] are within 1.5-fold of each other in IC50: 0.6 µM for the first, 0.68 µM for the second.

Going from CCNC(=O)Nc1ccc(-c2nc(CO)cc(N3CCOC[C@@H]3C)n2)cc1 [Example 5, 1-Ethyl-3-[4-[4-(hydroxymethyl)-6-[(3S)-3-methylmorpholin-4-yl]pyrimidin-2-yl]phenyl]urea] to C[C@H]1COCCN1c1cc(CO)nc(-c2ccc(NC(=O)Nc3ccccc3)cc2)n1 [Example 6, 1-[4-[4-(Hydroxymethyl)-6-[(3S)-3-methylmorpholin-4-yl]pyrimidin-2-yl]phenyl]-3-phenyl-urea], the IC50 rises from 0.063 µM to 0.56 µM (8.9-fold). The first is the more potent here.

Compared with CC(C)NC(=O)Nc1ccc(-c2nc(CS(C)(=O)=O)cc(N3CCOCC3)n2)cc1 [Example 7, 3-[4-[4-(Methylsulfonylmethyl)-6-morpholin-4-yl-pyrimidin-2-yl]phenyl]-1-propan-2-yl-urea], Cc1ccc(NC(=O)Nc2ccc(-c3nc(CS(C)(=O)=O)cc(N4CCOCC4)n3)cc2)cc1 [Example 7a, 1-(4-methylphenyl)-3-[4-[4-(methylsulfonylmethyl)-6-morpholin-4-yl-pyrimidin-2-yl]phenyl]urea] is 1.6-fold higher in IC50: 0.17 µM for the first, 0.28 µM for the second. The first is the more potent here.
